According to patent US20230203482A1, “Methods of Rescuing Stop Codons via Genetic Reassignment with ACE-tRNA” (THE WISTAR INSTITUTE OF ANATOMY AND BIOLOGY, priority 2017, published 2023):

System: native stop codons (TAA, TAG, TGA) of HEK293 transcripts
Assay: Ribosome footprint profiling of transcriptome-wide 3′UTRs
Type: cell-based, human
Settings: for ribosome occupancy at each nucleotide in the 3′UTR downstream of stop codons: HEK293, log 2-fold change versus control; for readthrough of native stop codons / global translation termination: HEK293, summary in discussion
Excerpt: The question was raised whether ACE-tRNAs that show efficacious suppression of premature stop codons may also induce global readthrough of native stop codons. To address this potential “off target” suppression, a transcriptome-wide quantitative profile of actively engaged ribosomes on all cellular transcripts was obtained by generating libraries of ribosome footprints from HEK293 cells expressing exogenous ACE-tRNAs or a control mock plasmid (puc57GG). Streptomycin was removed from the growth media to prevent readthrough artifacts. For comparison, the ribosome footprint library was also generated from cells in the presence or absence of G418 (150 μM, 48 hours). […] Only transcripts with a minimum threshold of 5 RPKM in the coding sequence and 0.5 RPKM in the 3′UTR in two replicate libraries were included for the quantitation comparison (254 transcripts in G418 and 495-748 transcripts in ACE-tRNAs). […] ACE-tRNAs examined here had no detectable change of 3′UTR ribosome density with the exception of ACE-tRNA Gln-UAA and Arg-UGA which induced approximately a 2-fold increase in 3′UTR ribosome density for the cognate stop codon complimentary to the ACE-tRNA anticodon. Understanding the biological significance of 2-fold readthrough of protein stops will require further study, but this effect is substantially lower compared to the 100- to 1000-fold suppression of PTC for the same ACE-tRNA.
Multiple in-frame stop codons are frequently found at the end of genes^37-39 and may cause a minor difference in overall 3′UTR ribosome density for ACE-tRNA and G418 treatment. Ribosome occupancy was examined at each nucleotide in the 3′UTR within a 60 nt region downstream of the stop codons. […] Reads were normalized per total million-mapped reads, compared against control cells, and reported as a log 2-fold change as in panel A. More than 5,200 transcripts were mapped to at least 1 footprint in the region of interest. […] Taken together, the ribosome profiling data argue that efficiency of native stop codon suppression by ACE-tRNAs is generally low, and markedly less than the level of PTC suppression.
Ribosome Footprint Profiling Library preparation. HEK293 cells transiently transfected with ACE-tRNAs and control plasmid (puc57GG) were grown in standard grown media in the absence of Pen-Strep for 48 h. Libraries were prepared as described^55, with a few modifications. Briefly, cells were rapidly cooled by addition of ice-cold PBS, lysed in lysis buffer (20 mM Tris-HCl/pH7.4, 150 mM NaCl, 5 mM MgCl2, 1 mM DTT, 1% (v/v) Triton X-100, and 25 U ml^−1 Turbo DNase I) for 10 min on ice, and triturated with ten times through a 26-G needle. After clearance by centrifugation at 16,000 g for 10 min at 4° C., the lysates were digested with 100 U RNase I (Ambion, USA) per A260 lysate at room temperature for 45 min with gentle agitation prior to adding 200 U RiboLock RNase Inhibitor (Thermo Scientific). Ribosome protected mRNA fragments were then isolated by loading lysates onto a 1M sucrose cushion prepared in modified polysome buffer (20 mM Tris-HCl/pH7.4, 150 mM NaCl, 8.5 mM MgCl2, 0.5 mM DTT, 20 U ml^−1 RiboLock RNase Inhibitor) and centrifugated at 70,000 rpm at 4° C. for 2 h using a Beckmen TLA-110 rotor. Ribosome pellets containing mRNA footprints were extracted using TRIzol and separated on a denaturing 12% polyacrylamide gel containing 8M urea. RNA fragments with sizes ranging from 26 to 34 nt were manually excised from the gel stained with SYBR Gold (Invitrogen) and isolated to generate the ribosome-protected fragment library. Contaminating rRNA fragments depleted using a Ribo-Zero kit (Illumina). 3′ Oligonucleotide adaptor ligation, reverse transcription, circularization, and secondary rRNA depletion using biotinylated rRNA depletion oligos (Table 9) were performed as described^55. Libraries were barcoded using indexing primers for each sample during PCR amplification. […]

| Molecule | ribosome occupancy at each nucleotide in the 3′UTR downstream of stop codons | readthrough of native stop codons / global translation termination |
| --- | --- | --- |
| Trpchr17.trna39: top performing tryptophan ACE-tRNA UGA suppressor, SEQ ID NO: 48 | no observable change of ribosome occupancy | no significant effect on global translation termination |
| Glychr19.trna2: top performing glycine ACE-tRNA UGA suppressor, SEQ ID NO: 53 (nucleic acid, chemistry not fully specified) GCGTTGGTGGTATAGTGGTTAGCATAGCTGCCTTCAAAGCAGTTGACCCGGGTTCGATTCCCGGCCAACGCA | no observable change of ribosome occupancy | no significant effect on global translation termination |
